Columns and labels:
Hepatotoxicity [1] = tested on: Hepatotoxicity;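 on HepSE bilirubinemia: bilirubinemia hepatic side effect score drawn from the DILIps training data, a prediction system for drug-induced liver injury; call rule not given here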;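 on HepSE cholecystitis: Cholecystitis-related hepatic side effect score drawn from the DILIps (drug-induced liver injury prediction) training data set; call rule not given here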;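 on HepSE cholelithiasis: hepatic side effect score for cholelithiasis, drawn from the DILIps training data for predicting drug-induced liver injury; call rule not given here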;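 on HepSE cirrhosis: cirrhosis hepatic side effect score taken from the DILIps (drug-induced liver injury prediction) training set; call rule not given here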;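 on HepSE elevated liver function tests: hepatic side effect score for raised liver function tests, as recorded in the DILIps training set used for predicting drug-induced liver injury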; on HepSE hepatic failure: call rule not given here;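 on HepSE hepatomegaly: hepatic side effect score for hepatomegaly, taken from the training set of the DILIps drug-induced liver injury prediction system; call rule not given here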
Hepatotoxicity [2] = tested on: Hepatotoxicity; remark: listed apart in the source;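 on HepSE bilirubinemia: bilirubinemia hepatic side effect score drawn from the DILIps training data, a prediction system for drug-induced liver injury; call rule not given here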;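 on HepSE cholecystitis: Cholecystitis-related hepatic side effect score drawn from the DILIps (drug-induced liver injury prediction) training data set; call rule not given here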;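 on HepSE cholelithiasis: hepatic side effect score for cholelithiasis, drawn from the DILIps training data for predicting drug-induced liver injury; call rule not given here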;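 on HepSE cirrhosis: cirrhosis hepatic side effect score taken from the DILIps (drug-induced liver injury prediction) training set; call rule not given here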;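 on HepSE elevated liver function tests: hepatic side effect score for raised liver function tests, as recorded in the DILIps training set used for predicting drug-induced liver injury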; on HepSE hepatic failure: call rule not given here;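 on HepSE hepatomegaly: hepatic side effect score for hepatomegaly, taken from the training set of the DILIps drug-induced liver injury prediction system; call rule not given here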
Hepatotoxicity [3] = tested on: Hepatotoxicity; remark: listed apart in the source;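 on HepSE bilirubinemia: bilirubinemia hepatic side effect score drawn from the DILIps training data, a prediction system for drug-induced liver injury; call rule not given here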;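 on HepSE cholecystitis: Cholecystitis-related hepatic side effect score drawn from the DILIps (drug-induced liver injury prediction) training data set; call rule not given here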;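 on HepSE cholelithiasis: hepatic side effect score for cholelithiasis, drawn from the DILIps training data for predicting drug-induced liver injury; call rule not given here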;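 on HepSE cirrhosis: cirrhosis hepatic side effect score taken from the DILIps (drug-induced liver injury prediction) training set; call rule not given here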;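 on HepSE elevated liver function tests: hepatic side effect score for raised liver function tests, as recorded in the DILIps training set used for predicting drug-induced liver injury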; on HepSE hepatic failure: call rule not given here
Hepatotoxicity [4] = tested on: Hepatotoxicity; remark: listed apart in the source;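 on HepSE bilirubinemia: bilirubinemia hepatic side effect score drawn from the DILIps training data, a prediction system for drug-induced liver injury; call rule not given here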;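 on HepSE cholecystitis: Cholecystitis-related hepatic side effect score drawn from the DILIps (drug-induced liver injury prediction) training data set; call rule not given here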;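 on HepSE cholelithiasis: hepatic side effect score for cholelithiasis, drawn from the DILIps training data for predicting drug-induced liver injury; call rule not given here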;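 on HepSE cirrhosis: cirrhosis hepatic side effect score taken from the DILIps (drug-induced liver injury prediction) training set; call rule not given here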;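 on HepSE elevated liver function tests: hepatic side effect score for raised liver function tests, as recorded in the DILIps training set used for predicting drug-induced liver injury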; on HepSE hepatic failure: call rule not given here
Hepatotoxicity [5] = tested on: Hepatotoxicity; remark: listed apart in the source; on HepSE hepatic failure: call rule not given here
Hepatotoxicity [6] = tested on: Hepatotoxicity; remark: listed apart in the source; on HepSE hepatic failure: call rule not given here
Hepatotoxicity [7] = tested on: Hepatotoxicity; remark: listed apart in the source
Hepatotoxicity [8] = tested on: Hepatotoxicity; remark: listed apart in the source
Hepatotoxicity [9] = tested on: Hepatotoxicity; remark: listed apart in the source
Hepatotoxicity [10] = tested on: Hepatotoxicity; remark: listed apart in the source
Hepatotoxicity [11] = tested on: Hepatotoxicity; remark: listed apart in the source
Hepatotoxicity [12] = tested on: Hepatotoxicity; remark: listed apart in the source
Hepatotoxicity [13] = tested on: Hepatotoxicity; remark: listed apart in the source
Hepatotoxicity [14] = tested on: Hepatotoxicity; remark: listed apart in the source

Row | SMILES | HepSE_bilirubinemia (Hepatotoxicity [1]) | HepSE_cholecystitis (Hepatotoxicity [2]) | HepSE_cholelithiasis (Hepatotoxicity [3]) | HepSE_cirrhosis (Hepatotoxicity [4]) | HepSE_elevated liver function tests (Hepatotoxicity [5]) | HepSE_hepatic failure (Hepatotoxicity [6]) | HepSE_hepatic necrosis (Hepatotoxicity [7]) | HepSE_hepatitis (Hepatotoxicity [8]) | HepSE_hepatomegaly (Hepatotoxicity [9]) | HepSE_jaundice (Hepatotoxicity [10]) | HepSE_liver disease (Hepatotoxicity [11]) | HepSE_liver fatty (Hepatotoxicity [12]) | HepSE_liver function tests abnormal (Hepatotoxicity [13]) | HepSE_Combined Scores (Hepatotoxicity [14])
1 | CC(C)CN(C[C@@H](O)[C@H](Cc1ccccc1)NC(=O)O[C@H]1CCOC1)S(=O)(=O)c1ccc(N)cc1 | 0 | 0 | 0 | 0 | 0 | 0 | 0 | 0 | 0 | 0 | 0 | 0 | 0 | 0
2 | CCOC(=O)[C@H](CCc1ccccc1)N[C@@H](C)C(=O)N1[C@H](C(=O)O)C[C@@H]2CCC[C@@H]21 | 0 | 0 | 0 | 0 | 0 | 1 | 1 | 1 | 0 | 1 | 0 | 0 | 0 | 4
3 | [Mg] | 0 | 0 | 0 | 0 | 0 | 0 | 0 | 0 | 0 | 0 | 0 | 0 | 0 | 0
4 | COc1ccc(C[C@@H]2c3cc(OC)c(OC)cc3CC[N@+]2(C)CCC(=O)OCCCCCOC(=O)CC[N@@+]2(C)CCc3cc(OC)c(OC)cc3[C@H]2Cc2ccc(OC)c(OC)c2)cc1OC | 0 | 0 | 0 | 0 | 0 | 0 | 0 | 0 | 0 | 0 | 0 | 0 | 0 | 0
5 | O=C(CO)[C@@H](O)[C@@H](O)COP(=O)(O)O | 0 | 0 | 0 | 0 | 0 | 0 | 0 | 0 | 0 | 0 | 0 | 0 | 0 | 0
6 | CNS(=O)(=O)CCc1ccc2[nH]cc(C3CCN(C)CC3)c2c1 | 0 | 0 | 0 | 0 | 0 | 0 | 0 | 0 | 0 | 0 | 0 | 0 | 1 | 1
7 | CC[C@@H](C(N)=O)N1CCCC1=O | 0 | 0 | 0 | 0 | 0 | 1 | 0 | 1 | 0 | 0 | 0 | 0 | 0 | 2
8 | COc1ccc(CC2c3cc(OC)c(OC)cc3CC[N+]2(C)CCC(=O)OCCCCCOC(=O)CC[N+]2(C)CCc3cc(OC)c(OC)cc3C2Cc2ccc(OC)c(OC)c2)cc1OC (configuration not stated) | 0 | 0 | 0 | 0 | 0 | 0 | 0 | 0 | 0 | 0 | 0 | 0 | 0 | 0
9 | CN1CCC[C@@H]1Cc1c[nH]c2ccc(CCS(=O)(=O)c3ccccc3)cc12 | 1 | 0 | 0 | 0 | 0 | 0 | 0 | 0 | 0 | 0 | 0 | 0 | 1 | 2
10 | CCCc1nc(C)c2c(=O)[nH]c(-c3cc(S(=O)(=O)N4CCN(CC)CC4)ccc3OCC)nn12 | 0 | 0 | 0 | 0 | 0 | 0 | 0 | 0 | 0 | 0 | 0 | 0 | 1 | 1
11 | CCOC(=O)[C@H](CCc1ccccc1)N[C@@H](C)C(=O)N1Cc2ccccc2C[C@H]1C(=O)O | 0 | 0 | 0 | 0 | 0 | 1 | 0 | 1 | 0 | 0 | 0 | 0 | 1 | 3
12 | CC(N)Cc1c[nH]c2ccccc12 (configuration not stated) | 0 | 0 | 0 | 0 | 0 | 0 | 0 | 0 | 0 | 0 | 0 | 0 | 0 | 0
13 | [Ca+2].[H-].[H-] | 0 | 0 | 0 | 0 | 0 | 0 | 0 | 0 | 0 | 0 | 0 | 0 | 0 | 0
14 | C=C1[C@H](CO)[C@@H](O)C[C@@H]1n1cnc2c(=O)[nH]c(N)nc21.O | 0 | 0 | 0 | 0 | 0 | 0 | 0 | 1 | 1 | 0 | 0 | 0 | 0 | 2
15 | Cc1c(O)cccc1C(=O)N[C@@H](CSc1ccccc1)[C@H](O)CN1C[C@H]2CCCC[C@H]2C[C@H]1C(=O)NC(C)(C)C | 1 | 0 | 0 | 0 | 0 | 0 | 0 | 1 | 0 | 1 | 0 | 0 | 1 | 4
16 | CCCN(CCc1ccsc1)C1CCc2c(O)cccc2C1 (configuration not stated) | 0 | 0 | 0 | 0 | 0 | 0 | 0 | 0 | 0 | 0 | 0 | 0 | 0 | 0
17 | N[C@@H](Cc1ccc(N(CCCl)CCCl)cc1)C(=O)O | 0 | 0 | 0 | 0 | 0 | 0 | 0 | 1 | 0 | 1 | 0 | 0 | 1 | 3
18 | C=CC1=C(C(=O)O)N2C(=O)[C@@H](NC(=O)/C(=N\O)c3csc(N)n3)[C@H]2SC1 | 0 | 0 | 0 | 0 | 0 | 1 | 0 | 1 | 0 | 1 | 0 | 0 | 0 | 3

— ChEMBL document CHEMBL1909294, “Translating clinical findings into knowledge in drug safety evaluation--drug induced liver injury prediction system (DILIps)” (PLoS Comput Biol, 2011)
